test system: ILC cell lines; assay: Drug sensitivity on the Sanger cell line panel, differential response between IR and HR subtype cell lines; format: cell-based; conditions: IR subtype cell lines (10) vs HR subtype cell lines (5); two-sided t-test between the AUC of the dose-response curves; Sanger response data (Garnett et al., 2012)
Description: Drug sensitivity was assessed on the Sanger cell line panel (internal version 17). We used the cell lines common in our ILC cell line panel and in the Sanger cell line panel. We used cell line AU565 instead of SK-BR-3, which is derived from the same patient. Among the 262 drugs, we focused our assessment on 88 agents that had measurement in at least three cell lines per subtype. With this dataset, we performed a two-sided t-test between the AUC of the dose-response curves of the cell lines in the two subtypes, correcting for multiple testing with the Benjamini-Hochberg method.
To identify candidate therapeutic options, we profiled a set of 15 ILC cell lines as in vitro models. We used their gene expression profiles to map them to the IR (10 cell lines) and HR (5 cell lines). We then used the response data for 88 drugs on a subset of these cell lines, as provided by the Wellcome Trust Sanger Institute (Garnett et al., 2012. Nature 483: 570-575), to test for differential drug sensitivity between the subtypes. We retained six drugs at an FDR<0.25 (FIG. 2).

| Molecule | differential drug sensitivity between the subtypes |
| --- | --- |
| N.N.[Cl][Pt][Cl] [Cisplatin] | more sensitive |
| CCc1c2c(nc3ccc(O)cc13)-c1cc3c(c(=O)n1C2)COC(=O)[C@]3(O)CC [SN-38, (+)-(4S)-4,11-diethyl-4,9-dihydroxy-1H-pyrano[3′,4′:6,7]-indolizino[1,2-b]quinoline-3,14(4H,12H)-dione] | more sensitive |
| Bleomycin | more sensitive |

— US20180051346A1, “METHODS AND MEANS FOR SUBTYPING INVASIVE LOBULAR BREAST CANCER” (Stichting Het Nederlands Kanker Instituut-Antoni van …, priority 2015, published 2018)
